Consider twelve compounds from patent publication US8999966B2, “Compounds that are ERK inhibitors” (Merck Sharp & Dohme Corp., priority 2010, dated 2015).

The IC50 is the point on the concentration scale where inhibition reaches its midpoint. Read a low IC50 as inhibition by little substance.

Sequence of fully phosphorylated, active Mouse ERK2 protein (P63085 whole entry): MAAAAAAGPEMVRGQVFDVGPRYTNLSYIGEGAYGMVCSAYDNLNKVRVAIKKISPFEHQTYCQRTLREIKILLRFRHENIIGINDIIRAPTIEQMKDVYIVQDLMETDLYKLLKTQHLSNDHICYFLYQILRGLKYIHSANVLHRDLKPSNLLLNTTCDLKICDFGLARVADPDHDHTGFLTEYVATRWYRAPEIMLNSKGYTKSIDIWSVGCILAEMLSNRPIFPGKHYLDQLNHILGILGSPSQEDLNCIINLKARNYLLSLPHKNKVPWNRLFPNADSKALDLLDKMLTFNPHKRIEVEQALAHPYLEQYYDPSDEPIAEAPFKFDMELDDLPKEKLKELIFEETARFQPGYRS

The test concerns the target fully phosphorylated, active Mouse ERK2 protein (Mus musculus, UniProt P63085). Description: Active ERK2 assay (AERK2), IMAP format. Type of test: biochemical. Particulars: activated ERK2, IMAP fluorescence polarization, 30 μM ATP. How it is done:
14 μl of kinase buffer (10 mM Tris.HCl pH 7.2, 10 mM MgCl2, 0.01% Tween-20, 1 mM DTT) containing 0.4 ng unphosphorylated Mouse ERK2 protein can be added to each well of a black 384-well assay plate. […] DMSO concentration during initial incubation is 6.7%. ERK2 activity can be determined to be insensitive to DMSO concentrations up to 20%. ERK2 can then be activated and it's kinase activity can be measured by the addition of 10 μl kinase buffer with the following components (final concentration per reaction): 2 ng active (phosphorylated) human MEK1 protein and 4 μM (total) ERK2 IMAP substrate peptides (3.9 μM unlabeled IPTTPITTTYFFFK-CONH2 and 100 nM IPTTPITTTYFFFK(5-carboxyfluorescein)-CONH2) and 30 μM ATP. DMSO concentration during ERK activation can be 4%. After one hour, reactions can be terminated by addition of 60 μl IMAP detections beads in binding buffer (Molecular Devices). Binding can be allowed to equilibrate for 30 minutes before reading the plate on an LJL Analyst Fluorescence Polarization plate reader. […] Active compounds can be reconfirmed in an independent assay.
Activated ERK2 activity was also determined in the IMAP assay format using the procedure outlined above. 1 μl of 25× compound was added to 14 μl of kinase buffer containing 0.25 ng fully phosphorylated, active Mouse ERK2 protein. Following a 30 minute incubation, the reactions were initiated by addition of 10 μl of kinase buffer containing 1 μM ERK2 IMAP substrate peptide (0.9 μM unlabeled IPTTPITTTYFFFK-CONH2 and 100 nM IPTTPITTTYFFFK(5-carboxyfluorescein)-CONH2) and 30 μM ATP. Reactions proceeded for 30 minutes before termination by addition of 60 μl IMAP detection beads in binding buffer. Plates were read as above after 30 minute binding equilibration. Active compounds were reconfirmed in an independent assay.
The compound `Clc1cc(-c2n[nH]c3ccc(-c4nnc([C@@H]5CCCN(CC6CCCCC6)C5)o4)cc23)ccn1` [Example 362, 3-(2-CHLORO-4-PYRIDINYL)- 5-[5-[1- (CYCLOHEXYLMETHYL)- 3(R)-PIPERIDINYL]-1,3,4- OXADIAZOL-2-YL]-1H- INDAZOLE] registered an IC50 not below 504 nM.

`CC(C)Oc1ccc(-c2n[nH]c3ccc(-c4n[nH]c([C@@H]5CCCN(Cc6cccs6)C5)n4)cc23)cc1` [Example 304, 3-[4-(1- METHYLETHOXY)PHENYL]- 5-[5-[1-(2- THIENYLMETHYL)-3(R)- PIPERIDINYL]-1H-1,2,4- TRIAZOL-3-YL]-1H- INDAZOLE] displayed an IC50 not below 504 nM.

As to `COc1cccc(F)c1CN1CCC[C@@H](c2nnc(-c3ccc4[nH]nc(-c5ccc6nn(C)cc6c5)c4c3)o2)C1` [Example 322, 5-[5-[1-[(2-FLUORO-6- METHOXYPHENYL)METHYL]- 3(R)-PIPERIDINYL]-1,3,4- OXADIAZOL-2-YL]-3-(2- METHYL-2H-INDAZOL-5- YL)-1H-INDAZOLE], the IC50 fell in the range of 0.3 to 10.4 nM.

Turning to `Clc1cc(-c2n[nH]c3ccc(-c4nnc([C@@H]5CCCN(Cc6cc7ccccc7o6)C5)o4)cc23)ccn1` [Example 357, 5-[5-[1-(2- BENZOFURANYLMETHYL)- 3(R)-PIPERIDINYL]-1,3,4- OXADIAZOL-2-YL]-3-(2- CHLORO-4-PYRIDINYL)-1H- INDAZOLE], the IC50 is not below 504 nM.

`COc1cccc(F)c1CN1CCC[C@@H](c2nnc(-c3ccc4[nH]nc(-c5ccc6occc6c5)c4c3)o2)C1` [Example 349, 3-(5-BENZOFURANYL)-5-[5- [1-[(2-FLUORO-6- METHOXYPHENYL)METHYL]- 3(R)-PIPERIDINYL]-1,3,4- OXADIAZOL-2-YL]-1H- INDAZOLE] displayed an IC50 not below 504 nM.

Compound `C1=CCN(Cc2cccs2)[C@@H](c2nc(-c3ccc4[nH]nc(-c5ccc6c(c5)CCO6)c4c3)n[nH]2)C1` [Example 255, 3-(2,3-DIHYDRO-5- BENZOFURANYL)-5-[5- [1,2,3,6-TETRAHYDRO-1-(2- THIENYLMETHYL)-2(R)- PYRIDINYL]-1H-1,2,4- TRIAZOL-3-YL]-1H- INDAZOLE] showed an IC50 not below 504 nM.

`Clc1cc(-c2n[nH]c3ccc(-c4nnc([C@@H]5CCCN(Cc6csc7ccccc67)C5)o4)cc23)ccn1` [Example 354, 5-[5-[1-(BENZO[b]THIEN-3- YLMETHYL)-3(R)- PIPERIDINYL]-1,3,4- OXADIAZOL-2-YL]-3-(2- CHLORO-4-PYRIDINYL)-1H- INDAZOLE] displayed an IC50 of more than 1000 nM.

`c1ccc2oc(CN3CCC[C@@H](c4nnc(-c5ccc6[nH]nc(-c7ccc8occc8c7)c6c5)o4)C3)cc2c1` [Example 350, 3-(5-BENZOFURANYL)-5-[5- [1-(2- BENZOFURANYLMETHYL)- 3(R)-PIPERIDINYL]-1,3,4- OXADIAZOL-2-YL]-1H- INDAZOLE] came in with an IC50 of more than 1000 nM.

`Fc1cccc(F)c1CN1CCCC(c2ccn(-c3ccc4[nH]nc(-c5ccncc5)c4c3)n2)C1` (stereo not drawn) [Example 367, 5-[3-[1-[(2,6- DIFLUOROPHENYL)METHYL]- 3-PIPERIDINYL]-1H- PYRAZOL-1-YL]-3-(4- PYRIDINYL)-1H-INDAZOLE] returned an IC50 of more than 1000 nM.

Compound `c1ccc(CN2CCCC(c3nnc(-c4ccc5[nH]nc(-c6ccc7c(c6)CCO7)c5c4)o3)C2)cc1` (stereo not drawn) [Example 307, 3-(2,3-DIHYDRO-5- BENZOFURANYL)-5-[5-[1- (PHENYLMETHYL)-3- (PIPERIDINYL]-1,3,4- OXADIAZOL-2-YL]-1H- INDAZOLE] showed an IC50 of more than 1000 nM.

Regarding `COc1cccc(F)c1CN1CCC[C@@H](c2nnc(-c3ccc4[nH]nc(-c5ccc(O)c(NC(C)=O)c5)c4c3)o2)C1` [Example 314, N-[5-[5-[5-[1-[(2-FLUORO-6- METHOXYPHENYL)METHYL]- 3(R)-PIPERIDINYL]-1,3,4- OXADIAZOL-2-YL]-1H- INDAZOL-3-YL]-2- HYDROXYPHENYL] ACETAMIDE], the IC50 is 0.3 to 10.4 nM.

Take `c1cc2cc(-c3n[nH]c4ccc(-c5nnc([C@@H]6CCCN(CC7CCCCC7)C6)o5)cc34)ccc2o1` [Example 352, 3-(5-BENZOFURANYL)-5-[5- [1-(CYCLOHEXYLMETHYL)- 3(R)-PIPERIDINYL]-1,3,4- OXADIAZOL-2-YL]-1H- INDAZOLE]: the IC50 is more than 1000 nM.
